Laboratory results from patent US4826817A, “Amino acid and hydroxyamino acid transporter compounds for therapeutic applications, process and use” (priority 1986, dated 1989).

Experiments:
[1] = Plasma and brain levels of L-tyrosine after intraperitoneal injection to rats; conditions: rat; for concentration at 0.5 h / concentration at 2 h: ip, 1620 umol/kg
Experimental: Male CD-COBS rats (Charles River, Italy) weighing 200 g were used. The animals housed under standard conditions of light-dark cycle, temperature and humidity with free access to water and food. […] Controls received saline. Rates were killed by decapitation 30 and 120 min. after treatment. Plasma and brain were rapidly removed and kept at -20° C. until assay.

[2] = Plasma and brain levels of L-tyrosine after intravenous injection to rats; format: in vivo, rat (male CD-COBS); conditions: rat, i.v. 1.62 mmol/kg, Table I
From the text: Controls received saline.

brain L-tyrosine concentrations (in words) ([2]; both intervals (30 and 120 min))	Structure (SMILES)	concentration at 0.5 h ([1]; brain) [ng/g]	concentration at 2 h ([1]; brain) [ng/g]	brain L-tyrosine concentrations (in words) ([1]; i.p. 1.62 mmol/kg, both intervals (30 and 120 min), Table II, L-tyrosine p<0.05, O-L-lysyl-L-tyrosine p<0.01)	concentration at 0.5 h ([1]; plasma) [ng/g]	concentration at 2 h ([1]; plasma) [ng/g]	Plasma L-tyrosine (in words) [2]
–	N[C@@H](Cc1ccc(O)cc1)C(=O)O [L-tyrosine]	20200 ± 1750	21800 ± 1520	significantly increased	16900 ± 2060	12700 ± 2230	–
significantly increased	NCCCC[C@H](N)C(=O)Oc1ccc(C[C@H](N)C(=O)O)cc1 [O-L-lysyl-L-tyrosine]	–	–	–	–	–	significantly raised by only 30 min. after the i.v. dose
